According to patent US20160193240A1, “Ulmoside-A: Useful For Prevention Or Cure Of Metabolic Diseases” (COUNCIL OF SCIENTIFIC & INDUSTRIAL RESEARCH, priority 2013, published 2016):

Tests used:
[1] = system: Mouse stromal vascular fractions (SVF); test: Brown adipose marker expression and mitochondrial copy number in mouse stromal vascular fractions; format: cell-based
Method: B. Mouse stromal vascular fractions (SVF) isolated from epididymal fat pads using collagenase digestion was differentiated in presence or absence of 10 nM ULMA and were analyzed for indicated mRNA expressions. **p<0.01, ***p<0.001 as determined by two tailed unpaired student's t-test.
C. Cells from identical set of experiments as described in FIGS. 5A and 5B or human SVFs prepared by collagenase digestions were analyzed by western blot analysis for determination of UCP-1, UCP-2 and PGC-1α protein level. Beta-actin was used as a loading control. Data is representative of three independent experiments.
D. Mouse SVFs differentiated in presence or absence of 10 nM ULMA were evaluated for mitochondrial copy number. Total cellular DNA was isolated from these cells by standard procedure (using a genomic DNA isolation kit; Macherey Nagel; according to manufacturer's instructions) and the mitochondrial DNA content was measured by QRT-PCR based measurement of mitochondrial cytochrome b (Cytb) by qPCR and normalized with genomic glycerol three phosphate dehydrogenase DNA level. Data represent mean±SEM from three independent experiments performed in triplicates. **p<0.01 as determined by two tailed unpaired student's t-test.
Mouse stromal vascular fractions (SVF) from epididymal fat pad were prepared using standard collagenase digestion method. Human SVF was prepared from human lipoaspirates (subcutaneous) collected from an obese individual undergoing liposuction following approval of Institutional Ethical Committee. To isolate SVFs, epidymal fat pads tissue or lipoaspirates were washed 6× in PBS and then were dispensed in tissue culture flasks. 0.2% sterile collagenase (Sigma) solution containing 1× antibiotic-antimycotic (Invitrogen) was then added to the adipose and the flasks were shaken vigorously for 10 seconds. The flasks were then incubated at 37° C. on a shaker for 2 hours with manual shaking of the flasks for 5-10 seconds every 15 min. After completion of digestion, FBS was added to the final concentration of 10% to the flasks, mixed and the collagenase digested tissue were then dispensed in 50 ml conical tubes and were centrifuged at 400 g for 10 min at room temp. The supernatant was discarded and the pellets constituting the SVFs were then reconstituted in culture medium (DMEM/F12 50:50+10% FBS) and plated in T25 tissue culture flasks and cultured for further experiments.
The SVFs were differentiated as for 3T3L-1 (described above), in presence of ULMA or vehicle (10 d for mouse SVF and 21 d for human SVF), following which they were lysed and used for QPCR or western blot analysis.
For western blot-based determination of UCP-1, UCP-2 and PGC-1α protein level, cells from an identical set of experiment were lysed and western blotted with UCP-1, UCP-2 (Abcam), PGC-1α(Calbiochem), or beta-actin (cell signaling technology; used as a loading control) as described above.

C2C12 myotubes = test: Fatty acid oxidation (14CO2 release from 14C palmitate) in C2C12 myotubes; format: cell-based, mouse; settings: 10 nM
Method: B. ULMA enhances fatty acid oxidation in C2C12 myotubes. C2C12 myotubes plated in 12 well plates were treated with vehicle (0.1% vol/vol DMSO) or 10 nM ULMA in DMSO (final concentration of DMSO in all wells 0.1% for 2 h, 24 h or 48 h. Data represent mean±SEM of three independent experiments performed in triplicates. Following treatment, ^14CO2 release from these cells was measured and plotted. *p<0.05, **p<0.01, ***p<0.001 as determined by two tailed unpaired student's t-test.
D. siAdipoR1 eliminates ULMA induction of fatty acid oxidation. C2C12 myotubes were transfected with nonsilencing siC or siAdipoR1. 72 h after transfection, cells were treated for 24 h with 10 nM ULMA and fatty acid oxidation experiments were performed. Data is mean±SEM of three independent experiments performed in triplicates. **p<0.01 as determined by two tailed unpaired student's t-test.
Adiponectin is known to enhance glucose uptake and fatty acid oxidation in skeletal muscle and myotubes (T. Kadowaki, T. Yamauchi, N. Kubota, K. Hara, K. Ueki, K. Tobe. J Clin Invest. 116(7): 1784-1792. 2006; T. Yamauchi, J. Kamon, Y. Ito, A. Tsuchida, T. Yokomizok, S. Kita, T. Sugiyama, M. Miyagishi, K. Hara, M. Tsunodaq, K. Murakamiq, T. Ohteki, S. Uchida, S. Takekawa, H. Waki, N. H. Tsuno, Y. Shibata, Y. Terauchi, P. Froguel, K. Tobe, S. Koyasu, K. Taira, T. Kitamura, T. Shimizuk, R. Nagai, T. Kadowaki. Nature. 423(6941):762-769. 2003). […] Subsequently, the cells were lysed in 100 μl 0.5N NaOH and 5 μl lysate was used for protein concentration determination, and rest of the lysate was used to measure cellular radioactivity in a beta-counter (Beckman Coulter). […] Radioactivity that had become adsorbed onto the filter discs was then quantified by liquid scintillation counting in a beta-counter (Beckman Coulter). The cells were lysed with 200 μl 0.5N NaOH and 5 μl of the lysate was used for protein estimation using Bradford assay and the radioactivity was normalized with the protein content.

[2] = differentiated in presence of ULMA, 10 d

O=C1c2c(cc(O)c([C@@H]3O[C@H](CO)[C@@H](O)[C@H](O)[C@H]3O)c2O)O[C@@H](c2ccc(O)c(O)c2)[C@@H]1O [ULMA, (2S,3S)-(+)-3′,4′,5,7-tetrahydroxydihydroflavonol-6-C-β-D-glucopyranoside]
PGC-1α mRNA level ([1]; 10 nM, 10 d differentiation): significant increase | PRDM16 mRNA level ([1]; 10 nM, 10 d differentiation): significant increase | UCP-1 mRNA level ([1]; 10 nM, 10 d differentiation): significant increase | UCP-2 mRNA level ([1]; 10 nM, 10 d differentiation): significant increase | mitochondrial DNA copy number (cytb level) ([1]; 10 nM, differentiated mouse SVFs): significantly higher | PGC-1α protein level [1, 2]: elevated | UCPs protein level [1, 2]: elevated | time of treatment at which induction of fatty acid oxidation was visible (C2C12 myotubes): ≤ 2 h | fatty acid oxidation (C2C12 myotubes; 2 h, 24 h or 48 h, increased with time): robustly induced | ULMA-induced fatty acid oxidation with siAdipoR1 (not siC) (C2C12 myotubes; 24 h, 72 h after siRNA transfection): completely eliminated
